This note sets out measurements from US6451833B1, “N-substituted (α-imidazolyl-toluyl)pyrrole compounds for treatment of circulatory disorders” (Pharmacia Corporation, priority 1991, dated 2002).

Data set [1] concerns AII pressor response. Kind of data set: Assay C: In Vivo Intraduodenal Pressor Assay Response for AII Antagonists. Details: species or system rat. Particulars: anesthetized Sprague-Dawley rats, 30 mg/kg i.d.; for Assay C Inhibition: inhibition of AII pressor response; for Assay C Duration: time from peak percent inhibition to 50% of peak. As for the experimental part: Male Sprague-Dawley rats weighing 225-300 grams were anesthetized with Inactin (100 mg/kg, i.p.) and catheters were implanted into the trachea, femoral artery, femoral vein and duodenum. Arterial pressure was recorded from the femoral artery catheter on a Gould chart recorder (Gould, Cleveland, Ohio). The femoral vein catheter was used for injections of angiotensin II, mecamylamine and atropine. The tracheal catheter allows for airway patency, and the duodenal catheter was used for intraduodenal (i.d.) administration of test compounds. After surgery, the rats were allowed to equilibrate for 30 minutes. Mecamylamine (3 mg/kg, 0.3 ml/kg) and atropine (400 ug/kg, 0.3 ml/kg) were then given i.v. to produce ganglion blockade. These compounds were administered every 90 minutes throughout the test procedure. Angiotensin II was given in bolus doses i.v. (30 ng/kg in saline with 0.5% bovine serum albumin, 0.1 ml/kg) every 10 minutes three times or until the increase in arterial pressure produced was within 3 mmHg for two consecutive AII injections. The last two AII injections were averaged and were taken as the control AII pressor response. Ten minutes after the final control AII injection, the test compound (dissolved in sodium bicarbonate) was administered i.d. at a dose of 30 mg/kg in a volume of 0.2 ml. Angiotensin II injections were then given 5, 10, 20, 30, 45, 60, 75, 90, and 120 minutes after administration of the test compound and response of arterial pressure was monitored. The response to AII was calculated as percent of the control response and then the percent inhibition is calculated as 100 minus the percent control response. Duration of action of a test compound was defined as the time from peak percent inhibition to 50% of peak. One compound at one dose was tested in each rat. Each test compound was tested in two rats and the values for the two rats were averaged.

Data set [2] has as its system rabbit aortic rings. The experiment in a line: Assay B: In Vitro Vascular Smooth Muscle Response for AII. The settings on record: test antagonist at 10^-5 M, AII contraction. As for the experimental part: The compounds of the invention were tested for antagonist activity in rabbit aortic rings. Male New Zealand white rabbits (2-2.5 kg) were sacrificed using an overdose of pentobarbital and exsanguinated via the carotid arteries. The thoracic aorta was removed, cleaned of adherent fat and connective tissue and then cut into 3-mm ring segments. The endothelium was removed from the rings by gently sliding a rolled-up piece of filter paper into the vessel lumen. The rings were then mounted in a water-jacketed tissue bath, maintained at 37° C., between moveable and fixed ends of a stainless steel wire with the moveable end attached to an FT03 Grass transducer coupled to a Model 7D Grass Polygraph for recording isometric force responses. […] The preparations were equilibrated for one hour before approximately one gram of passive tension was placed on the rings. Angiotensin II concentration-response curves were then recorded (3×10^−10 to 1×10^−5 M). Each concentration of AII was allowed to elicit its maximal contraction, and then AII was washed out repeatedly for 30 minutes before rechallenging with a higher concentration of AII. Aorta rings were exposed to the test antagonist at 10^−5 M for 5 minutes before challenging with AII. […] Each test antagonist was evaluated in aorta rings from two rabbits.

The target in data set [3] is smooth muscle angiotensin II receptor. The experiment in a line: Assay A: Angiotensin II Binding Activity. Particulars: displacement of 125I-AII, rat uterine membrane preparation. How it is done: Compounds of the invention were tested for ability to bind to the smooth muscle angiotensin II receptor using a rat uterine membrane preparation. […] Other chemicals were obtained from Sigma Chemical Co. This assay was carried out according to the method of Douglas et al [Endocrinology, 106, 120-124 (1980)]. Rat uterine membranes were prepared from fresh tissue. All procedures were carried out at 4° C. Uteri were stripped of fat and homogenized in phosphate-buffered saline at pH 7.4 containing 5 mM EDTA. The homogenate was centrifuged at 1500×g for 20 min., and the supernatant was recentrifuged at 100,000×g for 60 min. The pellet was resuspended in buffer consisting of 2 mM EDTA and 50 mM Tris-HCl (pH 7.5) to a final protein concentration of 4 mg/ml. […] The reaction was initiated by the addition of membrane protein and the mixture was incubated at 25° C. for 60 min. The incubation was terminated with ice-cold 50 mM Tris-HCl (pH 7.5) and the mixture was filtered to separate membrane-bound labelled peptide from the free ligand. The incubation tube and filter were washed with ice-cold buffer. Filters were assayed for radioactivity in a Micromedic gamma counter. […] Specific binding was calculated as total binding minus nonspecific binding. […] Binding data were analyzed by a nonlinear least-squares curve fitting program.

For `CCCCc1nc(Cl)c(CO)n1Cc1ccc(-n2cccc2C(=O)O)cc1` [Example 2], in data set [1], the “Assay C Inhibition” value is listed as 92% and the “Assay C Duration” value fell in the range of 20 to 30 min.

For the compound `CCCCc1nc(CO)c(Cl)n1Cc1ccc(-n2cccc2C(=O)O)cc1` [Example 3], the melting point (commonly the temperature of the solid-liquid transition) fell in the range of 180 to 181 °C.

Compound `CCCCc1nc(Cl)c(Cl)n1Cc1ccc(-n2cccc2C(=O)O)cc1` [Example 1, 1-[4-[(2-n-Butyl-4,5-dichloro-imidazolyl)methyl]phenyl]-1H-pyrrole-2-carboxylic Acid] showed a melting point of 181 to 182 °C. In data set [1], the “Assay C Inhibition” value stood at 74% and the “Assay C Duration” value was 5 to 10 min. In addition, the “Assay B pA2” value in data set [2] is on record as 5.6. The half-inhibitory concentration (IC50) (usually the concentration that gives 50% inhibition) in data set [3] is 5.8 µM.
